Experimental data reported in PubChem BioAssay (NCI).
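Method: 48-hour compound exposure of cells in 96-well plates, five concentrations, linear interpolation of endpoints. TGI: concentration producing complete growth inhibition.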

Tests used:
Assay in all cases: NCI anticancer screen, dose series, 48 h
SF-539 CNS = tested on: SF-539 CNS
SN12C renal = tested on: SN12C renal
SK-MEL-2 melanoma = tested on: SK-MEL-2 melanoma
NCI-H226 lung = tested on: NCI-H226 lung
UACC-62 melanoma = tested on: UACC-62 melanoma
SR leukemia = tested on: SR leukemia
CAKI-1 renal = tested on: CAKI-1 renal
HOP-92 NSCLC = tested on: HOP-92 NSCLC
SK-MEL-5 melanoma = tested on: SK-MEL-5 melanoma
MDA-MB-435 = tested on: MDA-MB-435
IGROV1 ovarian = tested on: IGROV1 ovarian
HCT-15 colon = tested on: HCT-15 colon
EKVX NSCLC = tested on: EKVX NSCLC
OVCAR-8 ovarian = tested on: OVCAR-8 ovarian
NCI/ADR-RES ovarian = tested on: NCI/ADR-RES ovarian
SF-295 CNS = tested on: SF-295 CNS
UO-31 renal = tested on: UO-31 renal
RXF 393 renal = tested on: RXF 393 renal
ACHN renal = tested on: ACHN renal
SK-MEL-28 melanoma = tested on: SK-MEL-28 melanoma
A549 NSCLC = tested on: A549 NSCLC
MDA-N = tested on: MDA-N
HT29 colon = tested on: HT29 colon
PC-3 prostate = tested on: PC-3 prostate
MCF7 breast = tested on: MCF7 breast
TK-10 renal = tested on: TK-10 renal
UACC-257 melanoma = tested on: UACC-257 melanoma
T-47D breast = tested on: T-47D breast
HL-60(TB) leukemia = tested on: HL-60(TB) leukemia
OVCAR-5 ovarian = tested on: OVCAR-5 ovarian
SK-OV-3 ovarian = tested on: SK-OV-3 ovarian
SNB-19 CNS = tested on: SNB-19 CNS
MOLT-4 leukemia = tested on: MOLT-4 leukemia
K-562 leukemia = tested on: K-562 leukemia
HS 578T breast = tested on: HS 578T breast
COLO 205 colon = tested on: COLO 205 colon
OVCAR-4 ovarian = tested on: OVCAR-4 ovarian
BT-549 breast = tested on: BT-549 breast
U251 CNS = tested on: U251 CNS
MALME-3M melanoma = tested on: MALME-3M melanoma
M14 melanoma = tested on: M14 melanoma
A498 renal = tested on: A498 renal
NCI-H522 lung = tested on: NCI-H522 lung
RPMI-8226 leukemia = tested on: RPMI-8226 leukemia
DU-145 prostate = tested on: DU-145 prostate
NCI-H23 lung = tested on: NCI-H23 lung
NCI-H460 lung = tested on: NCI-H460 lung
OVCAR-3 ovarian = tested on: OVCAR-3 ovarian
KM12 colon = tested on: KM12 colon
SF-268 CNS = tested on: SF-268 CNS
SW-620 colon = tested on: SW-620 colon
LOX IMVI melanoma = tested on: LOX IMVI melanoma
MDA-MB-231 breast = tested on: MDA-MB-231 breast
HCT-116 colon = tested on: HCT-116 colon
SNB-75 CNS = tested on: SNB-75 CNS
HOP-62 NSCLC = tested on: HOP-62 NSCLC
HCC-2998 colon = tested on: HCC-2998 colon
786-0 renal = tested on: 786-0 renal
CCRF-CEM leukemia = tested on: CCRF-CEM leukemia

Compound: CCN(CC)c1ccc(/C=C/C2=NN(c3cccc(S(=O)(=O)O)c3)C3(C2)C(Cl)C(=O)N3c2nc3ccccc3s2)cc1 (stereo unspecified)
- TGI (SF-539 CNS): 10.6 µM
- TGI (SN12C renal): 29 µM
- TGI (SK-MEL-2 melanoma): 29.3 µM
- TGI (NCI-H226 lung): 34.2 µM
- TGI (UACC-62 melanoma): 20.6 µM
- TGI (SR leukemia): 7.41 µM
- TGI (CAKI-1 renal): 8.26 µM
- TGI (HOP-92 NSCLC): 15.3 µM
- TGI (SK-MEL-5 melanoma): 20.9 µM
- TGI (MDA-MB-435): 17 µM
- TGI (IGROV1 ovarian): 17 µM
- TGI (HCT-15 colon): 24.1 µM
- TGI (EKVX NSCLC): 39.2 µM
- TGI (OVCAR-8 ovarian): 31.4 µM
- TGI (NCI/ADR-RES ovarian): > 79.3 µM
- TGI (SF-295 CNS): 27.7 µM
- TGI (UO-31 renal): 3.6 µM
- TGI (RXF 393 renal): 21.1 µM
- TGI (ACHN renal): 23.8 µM
- TGI (SK-MEL-28 melanoma): 63 µM
- TGI (A549 NSCLC): 28.7 µM
- TGI (MDA-N): 30 µM
- TGI (HT29 colon): 33.9 µM
- TGI (PC-3 prostate): 25.1 µM
- TGI (MCF7 breast): 21.1 µM
- TGI (TK-10 renal): 14.3 µM
- TGI (UACC-257 melanoma): 22.6 µM
- TGI (T-47D breast): 12.9 µM
- TGI (HL-60(TB) leukemia): 4.01 µM
- TGI (OVCAR-5 ovarian): 58.7 µM
- TGI (SK-OV-3 ovarian): 39.3 µM
- TGI (SNB-19 CNS): 29.7 µM
- TGI (MOLT-4 leukemia): 13.9 µM
- TGI (K-562 leukemia): 49.8 µM
- TGI (HS 578T breast): > 90.2 µM
- TGI (COLO 205 colon): 31.8 µM
- TGI (OVCAR-4 ovarian): 9.83 µM
- TGI (BT-549 breast): 22.7 µM
- TGI (U251 CNS): 15.5 µM
- TGI (MALME-3M melanoma): 24.9 µM
- TGI (M14 melanoma): 28.1 µM
- TGI (A498 renal): 24.8 µM
- TGI (NCI-H522 lung): 3.57 µM
- TGI (RPMI-8226 leukemia): 6.89 µM
- TGI (DU-145 prostate): 25.2 µM
- TGI (NCI-H23 lung): 22.8 µM
- TGI (NCI-H460 lung): 25.8 µM
- TGI (OVCAR-3 ovarian): 17.4 µM
- TGI (KM12 colon): 20.9 µM
- TGI (SF-268 CNS): 41.5 µM
- TGI (SW-620 colon): 53.4 µM
- TGI (LOX IMVI melanoma): 9.12 µM
- TGI (MDA-MB-231 breast): 27 µM
- TGI (HCT-116 colon): 24.1 µM
- TGI (SNB-75 CNS): 25.3 µM
- TGI (HOP-62 NSCLC): 22.9 µM
- TGI (HCC-2998 colon): 21.4 µM
- TGI (786-0 renal): 15.9 µM
- TGI (CCRF-CEM leukemia): 4.47 µM

Compound: CCOC(=O)CNC(=O)C(CSC(=O)N(O)c1ccc(Br)cc1)NC(=O)CCC(N)C(=O)OCC (stereo unspecified)
- TGI (SF-539 CNS): > 50 µM
- TGI (SN12C renal): > 50 µM
- TGI (SK-MEL-2 melanoma): > 50 µM
- TGI (NCI-H226 lung): > 50 µM
- TGI (UACC-62 melanoma): > 50 µM
- TGI (SR leukemia): > 50 µM
- TGI (CAKI-1 renal): > 50 µM
- TGI (HOP-92 NSCLC): > 50 µM
- TGI (SK-MEL-5 melanoma): > 50 µM
- TGI (MDA-MB-435): > 50 µM
- TGI (IGROV1 ovarian): > 50 µM
- TGI (HCT-15 colon): > 50 µM
- TGI (EKVX NSCLC): > 50 µM
- TGI (OVCAR-8 ovarian): > 50 µM
- TGI (NCI/ADR-RES ovarian): > 50 µM
- TGI (SF-295 CNS): > 50 µM
- TGI (UO-31 renal): > 50 µM
- TGI (RXF 393 renal): > 50 µM
- TGI (ACHN renal): > 50 µM
- TGI (SK-MEL-28 melanoma): > 50 µM
- TGI (A549 NSCLC): > 50 µM
- TGI (MDA-N): > 50 µM
- TGI (HT29 colon): > 50 µM
- TGI (PC-3 prostate): > 50 µM
- TGI (MCF7 breast): > 50 µM
- TGI (UACC-257 melanoma): > 50 µM
- TGI (T-47D breast): > 50 µM
- TGI (HL-60(TB) leukemia): 0.00622 µM
- TGI (OVCAR-5 ovarian): > 50 µM
- TGI (SK-OV-3 ovarian): > 50 µM
- TGI (SNB-19 CNS): > 50 µM
- TGI (MOLT-4 leukemia): > 50 µM
- TGI (K-562 leukemia): > 50 µM
- TGI (HS 578T breast): > 50 µM
- TGI (COLO 205 colon): > 50 µM
- TGI (OVCAR-4 ovarian): > 50 µM
- TGI (BT-549 breast): > 50 µM
- TGI (U251 CNS): > 50 µM
- TGI (MALME-3M melanoma): > 50 µM
- TGI (M14 melanoma): > 50 µM
- TGI (A498 renal): > 50 µM
- TGI (NCI-H522 lung): > 50 µM
- TGI (RPMI-8226 leukemia): > 50 µM
- TGI (DU-145 prostate): > 50 µM
- TGI (NCI-H23 lung): > 50 µM
- TGI (NCI-H460 lung): > 50 µM
- TGI (OVCAR-3 ovarian): > 50 µM
- TGI (KM12 colon): > 50 µM
- TGI (SF-268 CNS): > 50 µM
- TGI (SW-620 colon): > 50 µM
- TGI (LOX IMVI melanoma): > 50 µM
- TGI (MDA-MB-231 breast): > 50 µM
- TGI (HCT-116 colon): > 50 µM
- TGI (HOP-62 NSCLC): > 50 µM
- TGI (HCC-2998 colon): > 50 µM
- TGI (786-0 renal): > 50 µM
- TGI (CCRF-CEM leukemia): > 50 µM
